Patent publication US9254290B2, “Method for screening diabetes treating agent” (GWANGJU INSTITUTE OF SCIENCE AND TECHNOLOGY, priority 2010, dated 2016)

Assays:
3T3-L1 adipocytes = experiment: 6-NBDG uptake screening in 3T3-L1 adipocytes, 96-well, fluorescent microplate reader; type: cell-based, murine; settings: 100 nM insulin or 250 μM zinc sulfate; 6-NBDG vs 2-NBDG
Protocol: 3T3-L1 murine fibroblasts were maintained in proliferation media, consisting of DMEM supplemented with 10% FBS, 50 units/mL penicillin and 50 μg/mL streptomycin. 3T3-L1 fibroblasts were induced to differentiate into adipocytes as follows: 48 h postconfluent cells (designated day 0) were cultured in DMEM supplemented 10% FBS, 0.5 mM 3-isobutyl-1-methyl-xanthine, 2 μg/ml dexamethasone, 1 μg/ml insulin, 50 units/mL penicillin and 50 μg/mL streptomycin for 2 days. Every 2 days thereafter, the cells were incubated with fresh DMEM supplemented with 10% FBS and 1 μg/ml insulin. 3T3-L1 adipocytes were used for experiments 8 days after the induction of differentiation.
Three cell lines were chosen to test if NBDG can be used to detect insulin-stimulated glucose uptake in a 96 well plate culture format, which is more suitable for cell-based screening to identify novel insulin mimetic compounds. The cell lines chosen were Huh7 hepatocytes, C2C12 myoblasts and 3T3-L1 pre-adipocytes, which represent the major body tissue types that are sensitive to the action of insulin (liver, muscle and fat). 10^4 cells/well were seeded in a black, 96 well tissue culture plate (BD Falcon, NJ, USA). C2C12 myoblasts and 3T3-L1 adipocytes were induced to undergo differentiation into myotubes and adipocytes, respectively, to compare the NDBG signal in proliferating and differentiated cells. NBDG uptake was measured following treatment with 10 nM or 100 nM insulin, and 1 μM or 10 μM rosiglitazone (an insulin-sensitizing agent), using a fluorescent microplate reader (SpectraMAX GeminiXS and SoftMax Pro V5 software, Molecular Devices, CA, USA). Cells were cultured in serum-free low glucose culture media for 3 h before the addition of insulin.
To test the NBDG-based screening system, a combinatorial chemical library of 576 triazine-based small molecules was screened at a concentration of 5 μM. The combinatorial library was provided by Professor Young-Tae Chang, Department of Chemistry, National University of Singapore.
To test if this screening protocol could detect new insulin mimetic compounds, a combinatorial chemical library of 576 triazine-based small molecules was screened.

GLUT 1 = target: T1, GLUT 1 (Homo sapiens, UniProt P11166); settings: cited from earlier work
T1 sequence (P11166 1-492): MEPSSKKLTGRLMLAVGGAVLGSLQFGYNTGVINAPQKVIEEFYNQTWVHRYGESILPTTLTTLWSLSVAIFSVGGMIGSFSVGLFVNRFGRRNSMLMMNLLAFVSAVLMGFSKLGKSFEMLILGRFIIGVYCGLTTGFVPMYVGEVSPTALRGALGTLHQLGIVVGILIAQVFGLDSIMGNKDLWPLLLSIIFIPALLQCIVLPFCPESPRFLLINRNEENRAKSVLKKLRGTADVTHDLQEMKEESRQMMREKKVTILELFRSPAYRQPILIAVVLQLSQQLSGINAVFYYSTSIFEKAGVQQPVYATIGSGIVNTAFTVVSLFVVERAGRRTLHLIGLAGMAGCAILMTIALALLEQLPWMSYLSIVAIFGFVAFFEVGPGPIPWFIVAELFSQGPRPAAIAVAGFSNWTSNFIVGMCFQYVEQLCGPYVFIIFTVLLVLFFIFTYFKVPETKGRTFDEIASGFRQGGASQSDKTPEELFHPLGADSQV

In the case of `O=[N+]([O-])c1ccc(NCC2OC(O)C(O)C(O)[C@@H]2O)c2nonc12` (some centres unmarked) [6-NBDG, 6-(N-(7-nitrobenz-2-oxa-1,3-diazol-4-yl)amino)-6-deoxyglucose, reference compound], the “fluorescent signal of probe after insulin-stimulated uptake” value (3T3-L1 adipocytes) is given as “produced a greater fluorescent signal than 2-NBDG” and the “affinity for GLUT 1 relative to glucose” value (GLUT 1) is given as 300 times.
